# US20030103901A1, “ELISA kit for the determination of CYP2C19 metabolic phenotypes and uses thereof” (McGill University, priority 2001, published 2003)
# Marks after values point to notes of the source that are not given here.
# Experiments:
# [1] = tested on: AAMU-Ab; test: Competitive antigen ELISA, cross-reactivity of AAMU-Ab; type: binding, rabbit; details: for % Cross-Reaction AAMU-Ab: competitive antigen ELISA, 0 = absence of inhibition or inhibition no higher than 40% at highest concentration tested (5×10^−3 M)
# Description: (§1) Buffers and water without additives are filtered through millipore filters and kept for 1 week. BSA, antibodies, Tween™ 20 and horse radish peroxidase conjugates are added to these buffers and water just prior to use. Urine samples are usually collected 4 hours after drinking a cup of coffee (instant or brewed with approximately 100 mg of caffeine per cup) and stored at −80° C. The urine samples are diluted 10 times with sodium phosphate buffer (620 mosm, pH 7.50) and are subsequently diluted with water to give concentrations of AAMU and 1X no higher than 3×10^−6 M in the ELISA. All the pipettings are done with an eight-channel pipette, except those of the antibody and sample solutions. Starting with the last well, 100 μL of a carbonate buffer (100 mM, pH 9.6) containing 2.5 μg mL-^1 antibodies are added to each well. After 90 min. at room temperature, the wells are washed three times with […] of TPB: isotonic sodium phosphate buffer (310 mosm, pH 7.50) containing 0.05% Tween™ 20.
# (§2) After the initial wash, unoccupied sites are blocked by incubation for 90 min. at room temperature with 100 μL TBP containing 3% BSA. The wells are washed four times with 100 μL TPB. The washing is followed by additions of 50 μL of 12 mg mL^−1 AAMU-HRP or 1X-HRP conjugate in 2×TPB containing 2% BSA, and 50 μL of either water, standard (13 standards; AAMU or 1X, 2×10^−4 to 2×10^−8 M) or sample in duplicate. The microplate is gently shaken with an orbital shaker at room temperature for 3-4 hours. The wells are washed three times with 100 μL TPB containing 1% BSA and three times with water containing 0.05% Tween™ 20. To the washed plate is added 150 μL of a substrate buffer composed of citric acid (25 mM) and sodium phosphate dibasic buffer (50 mM, pH 5.0) containing 0.06% hydrogen peroxide and 0.04% o-phenylenediamine hydrochloride.
# (§3) Buffers and water without additives were filtered through millipore filters and kept for 1 week. BSA, antibodies, Tween™ 20 and horse radish peroxidase conjugates were added to these buffers and water just prior to use. Urine samples were usually collected 4 hours after drinking a cup of coffee (instant or brewed with approximately 100 mg of caffeine per cup) and stored at −80° C. They were diluted 10 times with sodium phosphate buffer (620 mosm, pH 7.50) and were subsequently diluted with water to give concentrations of AAMU and 1X no higher than 3×10^−6 M in the ELISA. All the pipettings were done with an eight-channel pipette, except those of the antibody and sample solutions. Starting with the last well, 100 μL of a carbonate buffer (100 mM, pH 9.6) containing 2.5 μg mL-^1 antibodies was pipetted. After 90 min. at room temperature, the wells were washed three times with 100 μL of TPB: isotonic sodium phosphate buffer (310 mosm, pH 7.50) containing 0.05% Tween™ 20.
# (§4) After the initial wash, unoccupied sites were blocked by incubation for 90 min. at room temperature with 100 μL TBP containing 3% BSA. The wells were washed four times with 100 μL TPB. This was followed by additions of 50 μL of 12 mg mL^−1 AAMU-HRP or 1X-HRP conjugate in 2×TPB containing 2% BSA, and 50 μL of either water, standard (13 standards; AAMU or 1X, 2×10^−4 to 2×10^−8 M) or sample in duplicate. The microplate was gently shaken with an orbital shaker at room temperature for 3-4 hours. The wells were washed three times with 100 μL with TPB containing 1% BSA and three times with water containing 0.05% Tween™ 20. To the washed plate was added 150 μL of a substrate buffer composed of citric acid (25 mM) and sodium phosphate dibasic buffer (50 mM, pH 5.0) containing 0.06% hydrogen peroxide and 0.04% o-phenylenediamine hydrochloride. After 20 min. at room temperature with shaking, the reaction was stopped with 50 μL of 2.5 N HCl.
# (§5) The cross reactivities of AAMU-Ab and 1X-Ab were tested using a wide variety of caffeine metabolites and structural analogs (Table 2 below).
# [2] = tested on: 1X-Ab; test: Competitive antigen ELISA, cross-reactivity of 1X-Ab; type: binding, rabbit; details: for % Cross-Reaction 1X-Ab: competitive antigen ELISA, 0 = absence of inhibition or inhibition no higher than 40% at highest concentration tested (5×10^−3 M)
# Description: as §1, §2, §3, §4, §5
"IC50 ([2]; 1X-Ab, 1X-HRP conjugate, read-out: concentration required for 50% inhibition in the competitive antigen ELISA) [µM]","IC50 ([1]; AAMU-Ab, AAMU-HRP conjugate, read-out: concentration required for 50% inhibition in the competitive antigen ELISA) [µM]",SMILES,% Cross-Reaction AAMU-Ab [1],% Cross-Reaction 1X-Ab [2] [%]
,,Cn1c(=O)[nH]c(=O)c2[nH]cnc21 [3-Methyl Xanthine],0%,0
,,O=c1[nH]cnc2nc[nH]c12 [Hypoxanthine],0%,0
10,,"Cn1c(=O)[nH]c2nc[nH]c2c1=O [1-Methyl Xanthine (1X), 1-Methyl Xanthine]",0%,100
,,Cc1nc2[nH]c(=O)[nH]c(=O)c2[nH]1 [8-Methyl Xanthine],0%,0
,,O=c1[nH]c(=O)c2[nH]c(=O)[nH]c2[nH]1 [Uric acid],0%,0
,,O=c1cc[nH]c(=O)[nH]1 [Uracil],0%,0
,,"CC(=O)Nc1c(N)n(C)c(=O)n(C)c1=O [5-Acetamino-6-amino-1,3-dimethyluracil]",0%,0
,,O=c1[nH]c(=O)c2[nH]cnc2[nH]1 [Xanthine],0^a %,0
,,"Cn1c(=O)c2c(ncn2C)n(C)c1=O [1,3,7-Trimethyl Xanthine (Caffeine), 1,3,7-Trimethyl Xanthine]",0%,0
,,"Cn1c(=O)[nH]c2[nH]c(=O)n(C)c2c1=O [1,7-Dimethyluric acid]",0%,0
,,Cn1cnc2[nH]c(=O)[nH]c(=O)c21 [7-Methyl Xanthine],0%,0
,,"Cn1c(=O)[nH]c2ncn(C)c2c1=O [1,7-Dimethyl Xanthine (Paraxanthine), 1,7-Dimethyl Xanthine]",0%,0.5
,,"Cn1cnc2c1c(=O)[nH]c(=O)n2C [3,7-Dimethyl Xanthine (Theobromine), 3,7-Dimethyl Xanthine]",0%,0
,,CC(=O)Nc1c(N)[nH]c(=O)[nH]c1=O [5-Acetamino-6-amino-uracil],0.6%,0
,,Cn1c(=O)[nH]c2[nH]c(=O)[nH]c2c1=O [1-Methyluric acid],0%,11
,,Nc1nc2nc[nH]c2c(=O)[nH]1 [Guanine],0%,0
,,"Cn1c(=O)c2[nH]cnc2n(C)c1=O [1,3-Dimethyl Xanthine (Theophylline), 1,3-Dimethyl Xanthine]",0%,0.2
,1.5,CC(=O)Nc1c(N)n(C)c(=O)[nH]c1=O [5-Acetamino-6-amino-1-methyluracil],100%,0
